From the supplement of paper PMC10307832

Experiments:
Experiment in all cases: relative viability (nuclei count vs DMSO), 5 days (fraction); higher = more cells survive
4EGI-1 + Pemetrexed = compound: O=C(O)C(Cc1ccccc1[N+](=O)[O-])=NNc1nc(-c2ccc(Cl)c(Cl)c2)cs1 (mixture of isomers) [4EGI-1] + Nc1nc2[nH]cc(CCc3ccc(C(=O)N[C@@H](CCC(=O)O)C(=O)O)cc3)c2c(=O)[nH]1 [Pemetrexed] (partner 0.2 µM)
Summary of the method: (§1)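 Dosing by pin tool came one day after lung cancer cell lines were seeded in 1536-well plates, using either one drug or a fixed anchor-drug dose plus five library-drug doses (not always all listed) in √10 steps. After 5 days, nuclei were counted on 4× images. Relative viability is treated-well nuclei count divided by vehicle-well nuclei count, and values are medians of duplicate plates.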

XMD8-85 + Alpelisib = compound: CN1CCN(CC1)C2=CC(=C(C=C2)NC3=NC=C4C(=N3)N(C5=CC=CC=C5C(=O)N4C)C)OC [XMD8-85] + Cc1nc(NC(=O)N2CCC[C@H]2C(N)=O)sc1-c1ccnc(C(C)(C)C(F)(F)F)c1 [Alpelisib] (partner 2 µM)
Summary of the method: as §1

XMD8-85 + Navitoclax = compound: CN1CCN(CC1)C2=CC(=C(C=C2)NC3=NC=C4C(=N3)N(C5=CC=CC=C5C(=O)N4C)C)OC [XMD8-85] + CC1(C)CCC(c2ccc(Cl)cc2)=C(CN2CCN(c3ccc(C(=O)NS(=O)(=O)c4ccc(N[C@H](CCN5CCOCC5)CSc5ccccc5)c(S(=O)(=O)C(F)(F)F)c4)cc3)CC2)C1 [Navitoclax] (partner 0.5 µM)
Summary of the method: as §1

4EGI-1 + Palbociclib = compound: O=C(O)C(Cc1ccccc1[N+](=O)[O-])=NNc1nc(-c2ccc(Cl)c(Cl)c2)cs1 (mixture of isomers) [4EGI-1] + CC(=O)c1c(C)c2cnc(Nc3ccc(N4CCNCC4)cn3)nc2n(C2CCCC2)c1=O [Palbociclib] (partner 0.5 µM)
Summary of the method: as §1

NCI-H1792
relative viability (4EGI-1 + Pemetrexed; first compound 0.5 µM): 1.05 | relative viability (4EGI-1 + Pemetrexed; first compound 1.581 µM): 0.952 | relative viability (4EGI-1 + Pemetrexed; first compound 5 µM): 0.833 | relative viability (4EGI-1 + Pemetrexed; first compound 15.81 µM): 0.841 | relative viability (4EGI-1 + Pemetrexed; first compound 50 µM): 0.463 | relative viability (XMD8-85 + Alpelisib; first compound 0.08 µM): 0.627 | relative viability (XMD8-85 + Alpelisib; first compound 0.253 µM): 0.642 | relative viability (XMD8-85 + Alpelisib; first compound 2.53 µM): 0.562 | relative viability (XMD8-85 + Alpelisib; first compound 8 µM): 0.723 | relative viability (XMD8-85 + Navitoclax; first compound 0.08 µM): 0.488 | relative viability (XMD8-85 + Navitoclax; first compound 0.253 µM): 0.398 | relative viability (XMD8-85 + Navitoclax; first compound 2.53 µM): 0.482 | relative viability (XMD8-85 + Navitoclax; first compound 8 µM): 0.49 | relative viability (4EGI-1 + Palbociclib; first compound 0.5 µM): 0.75 | relative viability (4EGI-1 + Palbociclib; first compound 1.581 µM): 0.695 | relative viability (4EGI-1 + Palbociclib; first compound 5 µM): 0.723 | relative viability (4EGI-1 + Palbociclib; first compound 15.81 µM): 0.575 | relative viability (4EGI-1 + Palbociclib; first compound 50 µM): 0.646
